Measured values from ChEMBL document CHEMBL1139680, “2,4-Disubstituted piperidines as selective CC chemokine receptor 3 (CCR3) antagonists: synthesis and selectivity” (Bioorg Med Chem Lett, 2006).

Assays:
[1] = target: T1, C-C chemokine receptor type 3 (Homo sapiens, UniProt P51677); assay: Binding affinity to CCR3
T1 sequence (P51677 whole entry): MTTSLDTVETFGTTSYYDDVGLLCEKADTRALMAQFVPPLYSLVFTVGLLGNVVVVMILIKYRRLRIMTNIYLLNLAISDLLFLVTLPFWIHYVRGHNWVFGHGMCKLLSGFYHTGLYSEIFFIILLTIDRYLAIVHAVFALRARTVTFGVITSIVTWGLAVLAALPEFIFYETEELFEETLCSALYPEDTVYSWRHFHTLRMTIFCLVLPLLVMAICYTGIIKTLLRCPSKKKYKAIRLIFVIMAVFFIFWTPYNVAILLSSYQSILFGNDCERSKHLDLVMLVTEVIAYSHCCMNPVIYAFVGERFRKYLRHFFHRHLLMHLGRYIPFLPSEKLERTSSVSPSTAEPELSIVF

[2] = target: Sodium-dependent dopamine transporter (Homo sapiens, UniProt Q01959); assay: Inhibition of DAT
[3] = target: Sodium-dependent noradrenaline transporter (Homo sapiens, UniProt P23975); assay: Inhibition of NET
[4] = target: Sodium-dependent serotonin transporter (Homo sapiens, UniProt P31645); assay: Inhibition of 5HTT
[5] = Oral bioavailability in mouse at 10 mg/kg, po; format: ADME, organism-based; conditions: in vivo
[6] = Half life in cynomolgus monkey at 5 mg/kg, po; format: ADME, organism-based, Macaca fascicularis; parameters: dose 5 mg/kg, route oral; conditions: in vivo
[7] = Cmax in cynomolgus monkeys after 5 mg/kg oral dose; format: ADME, organism-based, Macaca fascicularis; parameters: dose 5 mg/kg, route oral; conditions: cynomolgus monkey, in vivo
[8] = Cmax in mice after 10 mg/kg oral dose; format: ADME, organism-based; parameters: dose 10 mg/kg, route oral; conditions: mouse, in vivo
[9] = Clearance in cynomolgus monkey at 2 mg/kg, iv; format: ADME, organism-based, Macaca fascicularis; parameters: dose 2 mg/kg, route intravenous; conditions: in vivo
[10] = Volume of distribution in mouse ar 2 mg/kg, iv; format: ADME, organism-based; parameters: dose 2 mg/kg, route intravenous; conditions: in vivo, read-out: Vdss
[11] = tested on: Eosinophil; assay: Inhibition of eotaxin-induced calcium mobilization in eosinophil; format: functional, cell-based; conditions: Homo sapiens
[12] = Half life in mouse at 10 mg/kg, po; format: ADME, organism-based; parameters: dose 10 mg/kg, route oral; conditions: in vivo
[13] = Oral bioavailability in cynomolgus monkey at 5 mg/kg, po; format: ADME, organism-based, Macaca fascicularis; conditions: in vivo
[14] = tested on: Eosinophil; assay: Inhibition of eotaxin-induced human eosinophil chemotaxis; format: functional, cell-based
[15] = Volume of distribution in cynomolgus monkey at 2 mg/kg, iv; format: ADME, organism-based, Macaca fascicularis; parameters: dose 2 mg/kg, route intravenous; conditions: in vivo, read-out: Vdss
[16] = Clearance in mouse at 2 mg/kg, iv; format: ADME, organism-based; parameters: dose 2 mg/kg, route intravenous; conditions: in vivo

Sequence of Sodium-dependent noradrenaline transporter (P23975 whole entry): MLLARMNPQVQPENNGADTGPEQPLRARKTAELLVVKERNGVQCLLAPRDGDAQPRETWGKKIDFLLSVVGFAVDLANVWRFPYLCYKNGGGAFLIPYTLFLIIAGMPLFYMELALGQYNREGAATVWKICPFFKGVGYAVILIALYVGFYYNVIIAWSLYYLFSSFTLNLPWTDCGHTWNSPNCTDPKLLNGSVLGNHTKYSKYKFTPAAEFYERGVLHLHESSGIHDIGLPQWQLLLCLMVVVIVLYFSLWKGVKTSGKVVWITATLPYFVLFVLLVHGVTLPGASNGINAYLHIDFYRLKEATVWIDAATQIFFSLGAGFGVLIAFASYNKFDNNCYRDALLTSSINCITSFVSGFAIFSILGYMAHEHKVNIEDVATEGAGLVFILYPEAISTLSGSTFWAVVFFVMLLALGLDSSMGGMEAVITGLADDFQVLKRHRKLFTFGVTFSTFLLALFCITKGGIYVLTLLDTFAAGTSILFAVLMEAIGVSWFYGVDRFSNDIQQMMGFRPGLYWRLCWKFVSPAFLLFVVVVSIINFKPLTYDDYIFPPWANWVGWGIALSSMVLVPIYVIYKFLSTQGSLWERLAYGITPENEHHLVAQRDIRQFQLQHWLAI
Sequence of Sodium-dependent dopamine transporter (Q01959 whole entry): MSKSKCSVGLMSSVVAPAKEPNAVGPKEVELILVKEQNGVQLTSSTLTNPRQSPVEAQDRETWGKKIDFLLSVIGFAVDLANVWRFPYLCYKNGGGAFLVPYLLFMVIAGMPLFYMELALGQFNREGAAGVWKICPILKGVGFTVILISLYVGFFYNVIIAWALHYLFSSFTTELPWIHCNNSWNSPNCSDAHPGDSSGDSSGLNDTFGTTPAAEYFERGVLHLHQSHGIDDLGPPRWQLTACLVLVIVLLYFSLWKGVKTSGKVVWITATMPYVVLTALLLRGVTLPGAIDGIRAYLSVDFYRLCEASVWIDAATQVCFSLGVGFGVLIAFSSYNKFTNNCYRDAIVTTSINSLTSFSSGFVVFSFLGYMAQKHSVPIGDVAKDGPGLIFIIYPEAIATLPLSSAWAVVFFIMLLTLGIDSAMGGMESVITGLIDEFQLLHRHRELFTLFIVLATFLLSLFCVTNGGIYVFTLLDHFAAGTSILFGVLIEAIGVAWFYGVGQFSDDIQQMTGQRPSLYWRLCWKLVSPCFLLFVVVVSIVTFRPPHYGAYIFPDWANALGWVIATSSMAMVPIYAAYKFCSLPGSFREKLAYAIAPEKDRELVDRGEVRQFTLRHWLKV
Sequence of Sodium-dependent serotonin transporter (P31645 whole entry): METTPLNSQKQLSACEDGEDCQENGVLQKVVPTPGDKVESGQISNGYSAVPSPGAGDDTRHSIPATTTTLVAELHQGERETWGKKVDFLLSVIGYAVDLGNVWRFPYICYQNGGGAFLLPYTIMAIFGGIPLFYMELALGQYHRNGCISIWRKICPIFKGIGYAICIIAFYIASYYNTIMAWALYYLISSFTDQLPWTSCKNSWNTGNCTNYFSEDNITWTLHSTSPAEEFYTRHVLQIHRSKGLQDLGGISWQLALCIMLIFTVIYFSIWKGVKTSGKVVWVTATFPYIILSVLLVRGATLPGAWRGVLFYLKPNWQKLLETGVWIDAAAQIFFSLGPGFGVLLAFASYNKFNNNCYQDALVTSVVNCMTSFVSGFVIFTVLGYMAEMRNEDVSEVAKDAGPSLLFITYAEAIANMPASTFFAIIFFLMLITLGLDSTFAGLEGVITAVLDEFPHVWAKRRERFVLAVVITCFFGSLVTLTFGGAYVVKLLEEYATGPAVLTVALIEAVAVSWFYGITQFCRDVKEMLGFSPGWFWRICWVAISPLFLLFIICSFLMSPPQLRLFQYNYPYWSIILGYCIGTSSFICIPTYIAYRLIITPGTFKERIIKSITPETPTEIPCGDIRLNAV

Row | SMILES | IC50 [1] | Ki [2] | Ki [3] | Ki [4] | also measured
1 | CC(=O)c1cc(NC(=O)NCCC[C@H]2C[C@H](Cc3ccc(F)cc3)CCN2CC(F)(F)F)cc(C(C)=O)c1 | 1380 nM (antagonist) |  |  |  | 
2 | CC(=O)c1cc(NC(=O)NCCC[C@H]2C[C@H](Cc3ccc(F)cc3)CCN2)cc(C(C)=O)c1 | 0.5 nM (antagonist) | 119 nM | 95 nM | 3.5 nM | 
3 | CC(=O)c1cccc(NC(=O)NCCC[C@H]2C[C@H](Cc3ccc(F)cc3)CCN2C)c1 | 1.7 nM (antagonist) | 96 nM | 257 nM | 572 nM | 
4 | C=CCN1CC[C@@H](Cc2ccc(F)cc2)C[C@@H]1CCCNC(=O)Nc1cc(C(C)=O)cc(C(C)=O)c1 | 1 nM (antagonist) | 297 nM | 876 nM | 69 nM | 
5 | CC(=O)c1cc(NC(=O)NCCC[C@H]2C[C@H](Cc3ccc(F)cc3)CCN2CCO)cc(C(C)=O)c1 | 0.9 nM (antagonist) | 451 nM | 1390 nM | 40 nM | 
6 | CC(=O)c1cccc(NC(=O)NCCC[C@H]2C[C@H](Cc3ccc(F)cc3)CCN2)c1 | 1.4 nM (antagonist) | 219 nM | 233 nM | 18 nM | 
7 | CC(=O)c1cc(NC(=O)NCCC[C@H]2C[C@H](Cc3ccc(F)cc3)CCN2CCF)cc(C(C)=O)c1 | 2.3 nM (antagonist) | 651 nM | 317 nM | 49 nM | 
8 | C#CCN1CC[C@@H](Cc2ccc(F)cc2)C[C@@H]1CCCNC(=O)Nc1cc(C(C)=O)cc(C(C)=O)c1 | 1.9 nM (antagonist) | 621 nM | 524 nM | 305 nM | 
9 | CC(=O)c1cc(NC(=O)NCCC[C@H]2C[C@H](Cc3ccc(F)cc3)CCN2C(=N)N)cc(C(C)=O)c1 | 4.3 nM (antagonist) | 31 nM | 388 nM | 19 nM | 
10 | CC(=O)c1cccc(NC(=O)NCCC[C@H]2C[C@H](Cc3ccc(F)cc3)CCN2CCO)c1 | 7 nM (antagonist) | 2240 nM | 1820 nM | 50 nM | 
11 | CC(=O)c1cccc(NC(=O)NCCC[C@H]2C[C@H](Cc3ccc(F)cc3)CCN2CC2CC2)c1 | 2.5 nM (antagonist) | 251 nM | 3450 nM | 117 nM | 
12 | CCCN1CC[C@@H](Cc2ccc(F)cc2)C[C@@H]1CCCNC(=O)Nc1cccc(C(C)=O)c1 | 2 nM (antagonist) | 756 nM | 4170 nM | 296 nM | bioavailability [5]: 36%; half-life [6]: 9 h; Cmax [7]: 989 nM; Cmax [8]: 274 nM; clearance [9]: 6.67 mL/min/kg; Vd [10]: 8 L/kg; IC50 [11]: 26 nM; half-life [12]: 1.4 h; bioavailability [13]: 18%; EC50 [14]: 19 nM; Vd [15]: 3.1 L/kg; clearance [16]: 177 mL/min/kg
13 | C=CCN1CC[C@@H](Cc2ccc(F)cc2)C[C@@H]1CCCNC(=O)Nc1cccc(C(C)=O)c1 | 4.1 nM (antagonist) | 855 nM | 1230 nM | 217 nM | 
14 | CC(=O)CN1CC[C@@H](Cc2ccc(F)cc2)C[C@@H]1CCCNC(=O)Nc1cc(C(C)=O)cc(C(C)=O)c1 | 0.9 nM (antagonist) | 754 nM | 381 nM | 11 nM | 
15 | CC(=O)c1cc(NC(=O)NCCC[C@H]2C[C@H](Cc3ccc(F)cc3)CCN2C(C)=O)cc(C(C)=O)c1 | 3.9 nM (antagonist) | 1220 nM | 1380 nM | 5460 nM | IC50 [11]: 133 nM; EC50 [14]: > 100 nM
16 | CC(=O)c1cc(NC(=O)NCCC[C@H]2C[C@H](Cc3ccc(F)cc3)CCN2CCCO)cc(C(C)=O)c1 | 1.3 nM (antagonist) | 609 nM | 497 nM | 212 nM | 
17 | CCC(=O)N1CC[C@@H](Cc2ccc(F)cc2)C[C@@H]1CCCNC(=O)Nc1cc(C(C)=O)cc(C(C)=O)c1 | 5.8 nM (antagonist) | 2080 nM | 9260 nM | 224 nM | 
18 | CC(=O)c1cc(NC(=O)NCCC[C@H]2C[C@H](Cc3ccc(F)cc3)CCN2CC(N)=O)cc(C(C)=O)c1 | 3.6 nM (antagonist) | 2660 nM | 5010 nM | 710 nM | 
19 | CCCN1CC[C@@H](Cc2ccc(F)cc2)C[C@@H]1CCCNC(=O)Nc1cc(C(C)=O)cc(C(C)=O)c1 | 0.7 nM (antagonist) | 157 nM | 1480 nM | 166 nM | IC50 [11]: 1.2 nM; EC50 [14]: 4.7 nM
20 | CC(=O)c1cc(NC(=O)NCCC[C@H]2C[C@H](Cc3ccc(F)cc3)CCN2CC(F)F)cc(C(C)=O)c1 | 12.4 nM (antagonist) | 931 nM | 1050 nM | 328 nM | 
21 | CC(=O)c1cccc(NC(=O)NCCC[C@H]2C[C@H](Cc3ccccc3)CCN2)c1 (racemic) | 6 nM (antagonist) | 32 nM | 39 nM | 42 nM | 
22 | N#Cc1cccc(NC(=O)NCCC[C@H]2C[C@H](Cc3ccccc3)CCN2)c1 (racemic) | 22 nM (antagonist) |  |  |  | 
23 | N#Cc1cccc(NC(=O)NCCCC[C@H]2C[C@H](Cc3ccccc3)CCN2)c1 (racemic) | 142 nM (antagonist) |  |  |  | 
24 | N#Cc1cccc(NC(=O)NCCC[C@@H]2C[C@H](Cc3ccccc3)CCN2)c1 (racemic) | 386 nM (antagonist) |  |  |  | 
25 | N#Cc1cccc(NC(=O)NCC[C@H]2C[C@H](Cc3ccccc3)CCN2)c1 (racemic) | 185 nM (antagonist) |  |  |  | 
26 | N#Cc1cccc(NC(=O)NCCC[C@H]2C[C@H](Cc3ccccc3)CCN2)c1 (stereo in doubt; 4) | 13 nM (antagonist) | 34 nM | 37 nM | 35 nM | 
27 | N#Cc1cccc(NC(=O)NCCC[C@H]2C[C@H](Cc3ccccc3)CCN2)c1 (stereo in doubt; 5) | 644 nM (antagonist) | 10 nM | 46 nM | 54 nM | 
